Where two headings read alike, the source gives them in different places.
Experiments:
VDR = molecular target: T1, VDR (Homo sapiens, UniProt P11473); test: Translocation of VDR to the nucleus, imaging flow cytometry in HaCaT; assay type: cell-based; conditions: 10^–7 M, 12 h
T1 construct: endogenous in cells; host or cells: HaCaT keratinocytes
T1 sequence (P11473 1-427): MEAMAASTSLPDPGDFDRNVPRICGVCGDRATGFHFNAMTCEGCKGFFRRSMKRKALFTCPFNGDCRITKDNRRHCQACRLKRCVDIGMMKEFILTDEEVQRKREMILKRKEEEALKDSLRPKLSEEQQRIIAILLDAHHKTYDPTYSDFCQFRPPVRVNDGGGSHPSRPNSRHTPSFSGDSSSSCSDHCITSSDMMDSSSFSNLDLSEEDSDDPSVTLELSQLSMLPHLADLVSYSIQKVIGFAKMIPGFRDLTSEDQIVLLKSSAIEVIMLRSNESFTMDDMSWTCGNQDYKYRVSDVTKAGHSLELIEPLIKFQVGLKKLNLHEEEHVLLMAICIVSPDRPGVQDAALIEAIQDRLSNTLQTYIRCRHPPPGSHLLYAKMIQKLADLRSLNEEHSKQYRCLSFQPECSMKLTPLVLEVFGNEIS

[1] = tested on: LXR-response element (LXRE)-driven reporter in CHO cells; test: LXRE-driven luciferase reporter assay in CHO cells; assay type: cell-based; conditions: 10^–7 M, CHO and HaCaT cells (Fig. 4C)
Experimental: The effects of vitamin D3 and L3 hydroxyderivatives were tested on the LXRE transcriptional activity using pGreenFire1-LXRE-in-ApoE Lentivirus (System Biosciences, Palo Alto, CA). This plasmid was transduced in CHO and HaCaT cells following the manufacture’s protocol and the cells used as a stable LXRE expressed tool. Briefly, the virus was transduced into the cells using TransDux MAX Lentivirus Transduction Enhancer (System Biosciences, Palo Alto, CA) and screened to select the transduced cells using puromycin. The transduced cells were treated with the compounds for 24 h in media containing 5% cFBS (charcoal-treated fetal bovine serum) and the luminescence was read by ONE-Glo Luciferase Assay System (Promega, Madison, WI) using Cytation 5 (BioTek, Winooski, VT).

LXRα = molecular target: T2, LXRα (Homo sapiens, UniProt Q13133); test: Ligand induced translocation of LXRα to the nucleus, immunofluorescence in HaCaT; assay type: cell-based; conditions: 10^−7 M, 24 h
T2 construct: endogenous in cells; host or cells: HaCaT keratinocytes
T2 sequence (Q13133 1-447): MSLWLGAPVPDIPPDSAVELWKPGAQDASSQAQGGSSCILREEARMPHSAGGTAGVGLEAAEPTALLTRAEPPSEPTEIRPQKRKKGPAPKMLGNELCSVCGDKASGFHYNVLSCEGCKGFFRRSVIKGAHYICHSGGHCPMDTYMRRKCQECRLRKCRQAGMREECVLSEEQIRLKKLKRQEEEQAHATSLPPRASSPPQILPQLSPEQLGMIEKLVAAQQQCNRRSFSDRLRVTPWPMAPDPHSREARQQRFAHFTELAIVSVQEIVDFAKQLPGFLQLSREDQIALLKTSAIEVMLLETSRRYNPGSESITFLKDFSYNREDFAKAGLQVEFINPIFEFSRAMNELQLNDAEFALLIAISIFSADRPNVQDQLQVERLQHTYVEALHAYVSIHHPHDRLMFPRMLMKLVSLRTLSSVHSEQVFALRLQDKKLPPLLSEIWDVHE
Experimental: HaCaT cells were plated in DMEM plus 5% cFBS either on a sterile glass cover slip placed in a well of a 6-well plates for immunofluorescence (IF) assays or TPP Petri dishes for image-stream flow cytometry, and treated with 10^–7 M D3- or L3-hydroxyderivatives or 0.1% ethanol (vehicle) as a negative control was added to each well, and the cells were incubated for 12 or 24 h at 37 °C with 5% CO2. For IF the cells were fixed in 4% paraformaldehyde for 15 min, incubated in 0.5% Triton X-100 in phosphate-buffered saline (PBS) for 5 min, and washed 3 times in PBS. After blocking with 2% bovine serum albumin (BSA) in PBS for 1 h at room temperature, the cells were treated with an anti-LXRα antibody (Novus Biologicals, LLC, Centennial, CO) at 1:200 in PBS supplemented with 2% BSA overnight in 4 °C. After washing the slides were incubated with a mouse anti-rabbit IgG-FITC (Santa Cruz Biotechnology, Inc, Dallas, TX) at 1:200 dilution for 1.5 h at 37 °C. After washing the slides were mounted using propidium iodide (PI) (Vector Labs, Burlingame, California) as a nuclear counterstain. The slides were examined using a KEYENCE America BZ-X710 Fluorescence Microscope (Itasca, IL). The images were subsequently analyzed using the JACoP plugin for colocalization analysis with ImageJ[74]. Five separate high-power field (40×) images were converted to grayscale and analyzed for each condition. Manders’ coefficient (M1), calculated using a preset threshold, was used to quantify the degree of colocalization between PI and LXRα with 0 representing no colocalization, and 1 representing perfect colocalization.

ABCA1 = test: qPCR of ABCA1 in HaCaT keratinocytes; assay type: cell-based, human; conditions: 10^–7 M
Experimental: HaCaT keratinocytes were cultured as described previously. For RNA isolation the cells were maintained in TPP tissue culture petri dishes (Ø60 mm, 22.1 cm^2) in DMEM containing 10% cFBC to reach semi-confluence and then exposed to 10^–7 M compounds or a corresponding concentration of ethanol solvent.
(§1) RNA isolated from either fibroblasts, HaCaT cells or brain was submitted for cDNA synthesis (High Capacity cDNA Reverse Transcription Kit with RNase Inhibitor, Applied Biosystems) following the manufacturers’ protocols. RT-PCR was carried out using Cyber green, in triplicates; as previously described. Approximately, 750 ng of cDNA was used for PCR reactions. GAPDH and CIC-B were used as internal controls. Primer sequences are listed in Supplementary Table 27. Data were analyzed using GraphPad Prism statistical software one way ANOVA or t-test, where appropriate; *p < 0.05; **p < 0.01; ***p < 0.001.

ABCA1 gene = conditions: HaCaT cells, 10^–7 M, microarray GSE117351 ref 44, cited from earlier work
brains of SKH-1 mice = test: LXR-dependent gene expression in brain of mice after subcutaneous injection; assay type: in vivo, mouse; conditions: 6 h, SKH-1-M mice
Experimental: Adult hairless mice SKH-1 (Male, 16 weeks old) and Ptch^+/−/SKH-1 (Male, 18 weeks old) were injected subcutaneously with 20 µg and 10 µg/kg of 20(OH)D3, respectively, dissolved in ethanol, further diluted in propylene glycol (PG) and saline (0.9%) sequentially (1:19:80, v/v/v). Controls were injected with the vehicle without the drug. )After 6 h the animals were killed by halothane followed by cervical dislocation and brains were collected for RNA and protein extraction protocols. The procedures followed the guidelines and approvals of the Institute Animal Care and Use Committee of the University of Alabama at Birmingham (IACUC).
as §1

C=C1C(=CC=C2CCCC3(C)C2CCC3C(C)(O)CC(O)CC(C)C)CC(O)CC1O (centres unmarked) [1,20,23(OH)3D3]
translocation of VDR from the cytoplasm to the nucleus (VDR): increased translocation
LXRE luciferase (transcriptional) activity [1]: strongest stimulatory effects

C=C1/C(=C\C=C2/CCC[C@]3(C)[C@@H]([C@H](C)CCCC(C)(C)O)CC[C@@H]23)C[C@@H](O)C[C@@H]1O [1,25(OH)2D3, reference compound]
translocation of LXRα to the nucleus (immunofluorescence, Manders' coefficient) (LXRα): induced translocation
ABCA1 RNA expression (qPCR) (ABCA1): stimulation
LXRE luciferase (transcriptional) activity [1]: strongest stimulatory effects
ABCA1 expression, stimulation (ABCA1 gene; 6 h): 2.4 times
ABCA1 expression, stimulation (ABCA1 gene; 24 h): 2.4 fold

C=C1CC[C@H](O)C/C1=C/C=C1\CCC[C@@]2(C)[C@H]1CC[C@@H]2[C@@](C)(O)CCCC(C)C [20(OH)D3]
LXR-dependent gene expression in brain (brains of SKH-1 mice; 10 µg/kg): stimulated expression of Abca1, Abcg1, Abcg5, ApoE, Fas and Cyp7a1
LXR-dependent gene expression in brain (brains of SKH-1 mice; 20 µg/kg): stimulated expression of Lpl, Abca1, ApoE and Cyp7a1
translocation of LXRα to the nucleus (immunofluorescence, Manders' coefficient) (LXRα): induced translocation
translocation of VDR from the cytoplasm to the nucleus (VDR): increased translocation
ABCA1 RNA expression (qPCR) (ABCA1): stimulation

C=C1CCC(O)CC1=CC=C1CCCC2(C)C1CCC2C(C)(O)CC(O)CC(C)C (centres unmarked) [20,23(OH)2D3]
ABCA1 expression, stimulation (ABCA1 gene; 6 h): 2.8 times
ABCA1 expression, stimulation (ABCA1 gene; 24 h): 2.3 fold
